Experimental data reported in US6506901B2, “Substituted 2-(S)-hydroxy-3-(piperidin-4-yl-methylamino)-propyl ethers and substituted 2-aryl-2-(R)-hydroxy-1-(piperidin-4-yl-methyl)-ethylamine β-3 adrenergic receptor agonists” (Wyeth, priority 2000, dated 2003).

Molecular target: T1, human β3 receptors (Homo sapiens, UniProt P13945)
T1 construct: Full length β3 AR clones (402 amino acids) containing the last 6 amino acids of hβ3—AR; expressed in transfected cells; host or cells: CHO cells
Assay: cAMP response (SPA) in CHO cells expressing cloned human β3 adrenergic receptor
Type: cell-based
Details: for EC50: CHO cells expressing human β3 receptor, cAMP, 30 min incubation, 10^−9 M to 10^−5 M; for IA(β3): maximal response compared to the maximal response of isoproterenol at 10^−5 M
Procedure: Binding to the receptors was measured in Chinese Hamster ovary (CHO) cells that were transfected with adrenergic receptors.
Cloning of Human β3-AR Genomic DNA: cDNA was constructed by ligating four polymerase chain reaction (PCR) products using the following primers: an ATG-NarI fragment, sense primer 5′-[…]3′ and anti-sense primer 5′ […]3′; a NarI-AccI fragment, 5′ […]3′ as sense and 5′ […]3′ as anti-sense primer; an AccIi-StyI fragment, sense primer 5′ […]3′ and anti-sense primer 5′ […]3′ and a StyI-TAG fragment, with sense primer 5′ […]3′ and anti-sense primer 5′ […]3′. The corresponding primer sequences are described in Mantzoros, C. […] The four fragments are ligated into a pUC 18 plasmid (Gibco-BRL) and sequenced.
CHO cells were grown in 24-well tissue culture plates in Dulbecco's Modified Eagle Media with 10% fetal bovine serum, MEM non-essential amino acids, Penicillin-Streptompycin and Geneticin. […] Isoproterenol (10^−5 M) was used as an internal standard for comparison of activity. Cells were incubated at 37° C. on a rocker for 30 min with the β3 cells and 15 min for β1 and β2 cells. Incubation was stopped with the addition of 0.2N HCl and neutralized with 2.5N NaOH. The plates, containing the cells and neutralized media, were stored at −20 degrees celsius until ready to test for cAMP using the SPA test kit (Amersham).
Data Analysis and Results: Data collected from the SPA test procedure were analyzed as per cent of the maximal isoproterenol response at 10^−5 M. Activity curves were plotted using the SAS statistical and graphics software.

T1 sequence (P13945 whole entry): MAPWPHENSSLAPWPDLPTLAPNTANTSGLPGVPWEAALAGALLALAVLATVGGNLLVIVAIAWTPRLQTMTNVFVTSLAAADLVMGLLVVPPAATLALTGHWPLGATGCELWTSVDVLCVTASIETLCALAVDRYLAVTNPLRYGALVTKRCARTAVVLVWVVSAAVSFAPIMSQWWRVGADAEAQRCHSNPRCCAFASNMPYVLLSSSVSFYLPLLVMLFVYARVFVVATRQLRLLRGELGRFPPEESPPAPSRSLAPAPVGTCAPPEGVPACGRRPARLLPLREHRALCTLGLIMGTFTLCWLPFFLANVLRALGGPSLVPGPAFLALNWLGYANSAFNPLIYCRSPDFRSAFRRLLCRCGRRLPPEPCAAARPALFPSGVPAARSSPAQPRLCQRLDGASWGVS

| SMILES | EC50 [nM] | IA(β3) |
| --- | --- | --- |
| O=C1c2ccccc2-c2c(OC[C@@H](O)CNCC3CCN(CCC(F)(F)F)CC3)cccc21 [Example 13, 4-(2-Hydroxy-3-{[1-(3,3,3-trifluoro-propyl)-piperidin-4-ylmethyl]-amino}-propoxy)-fluoren-9-one] | 596 | 0.62 |
| OC1c2ccccc2-c2c(OC[C@@H](O)CNCC3CCN(CCC(F)(F)F)CC3)cccc21 (stereo partly drawn) [Example 14, 4-((2S)-2-Hydroxy-3-{[1-(3,3,3-trifluoro-propyl)-piperidin-4-ylmethyl]-amino}-propoxy)-9H-fluoren-9-ol] | 219 | 0.75 |
| Oc1ccc2[nH]c3ccccc3c2c1OC[C@@H](O)CNCC1CCN(CCC(F)(F)F)CC1 [Example 15, 4-((2S)-2-Hydroxy-3-{[1-(3,3,3-trifluoro-propyl)-piperidin-4-ylmethyl]-amino}-propoxy)-9H-carbazol-3-ol] | 12500 | 0.52 |
| O[C@@H](CNCC1CCN(CCC(F)(F)F)CC1)COc1c(Cl)ccc2[nH]c3ccccc3c12 [Example 19, (2S)-1-(3-Chloro-9H-carbazol-4-yloxy)-3-{[1-(3,3,3-trifluoro-propyl)-piperidin-4-ylmethyl]-amino}-propan-2-ol] | 1240 | 0.82 |
| O=c1[nH]c2cccc(OC[C@@H](O)CNCC3CCN(CCC(F)(F)F)CC3)c2[nH]1 [Example 22, 4-((2S)-2-Hydroxy-3-{[1-(3,3,3-trifluoro-propyl)-piperidin-4-ylmethyl]-amino}-propoxy)-1,3-dihydro-benzoimidazol-2-one] | 1210 | 0.53 |
| Cc1cc2c(OC[C@@H](O)CNCC3CCN(CCC(F)(F)F)CC3)cccc2[nH]1 [Example 23, (2S)-1-(2-Methyl-1H-indol-4-yloxy)-3-{[1-(3,3,3-trifluoro-propyl)-piperidin-4-ylmethyl]-amino}-propan-2-ol] | 1090 | 0.66 |
| O[C@@H](CNCC1CCN(CCCC(F)(F)F)CC1)COc1cccc2[nH]c3ccccc3c12 [Example 24, (2S)-1-(9H-Carbazol-4-yloxy)-3-{[1-(4,4,4-trifluoro-butyl)-piperidin-4-ylmethyl]-amino}-propan-2-ol] | 943 | 0.98 |
| CCCCCCCCN1CCC(CNC[C@H](O)COc2cccc3[nH]c4ccccc4c23)CC1 [Example 27] | 1030 | 0.51 |
| CC(C)S(=O)(=O)N1CCC(CNC[C@H](O)COc2cccc3[nH]c4ccccc4c23)CC1 [Example 32, (2S)-1-(9H-Carbazol-4-yloxy)-3-{[1-(ropane-2-sulfonyl)-piperidin-4-ylmethyl]-amino}-propan-2-ol] | 123 | 0.8 |
| COc1ccc(S(=O)(=O)N2CCC(CNC[C@H](O)COc3cccc4[nH]c5ccccc5c34)CC2)cc1 [Example 33, (2S)-1-(9H-Carbazol-4-yloxy)-3-{[1-(4-methoxy-benzenesulfonyl)-piperidin-4-ylmethyl]-amino}-propan-2-ol] | 141 | 0.68 |
| COc1ccc(S(=O)(=O)N2CCC(CNC[C@H](O)COc3c(Br)ccc4[nH]c5ccccc5c34)CC2)cc1 [Example 34, (2S)-1-(3-Bromo-9H-carbazol-4-yloxy)-3-{[1-(4-methoxy-benzenesulfonyl)-piperidin-4-ylmethyl]-amino}-propan-2-ol] | 7000 | 0.36 |
| COc1ccc(S(=O)(=O)N2CCC(CNC[C@H](O)COc3ccc(O)cc3)CC2)cc1 [Example 37, 4-((2S)-2-Hydroxy-3-{[1-(4-methoxy-benzenesulfonyl)-piperidin-4-ylmethyl]-amino}-propoxy)-phenol] | 376 | 1.04 |
| COc1ccc(S(=O)(=O)N2CCC(CNC[C@H](O)COc3cccc4c3-c3ccccc3C4=O)CC2)cc1 [Example 38, 4-((2S)-2-Hydroxy-3-{[1-(4-methoxy-benzenesulfonyl)-piperidin-4-ylmethyl]-amino}-propoxy)-fluoren-9-one] | 365 | 0.36 |

Continued, values first:

| EC50 [nM] | IA(β3) | SMILES |
| --- | --- | --- |
| 34 | 0.94 | CS(=O)(=O)Nc1cc(C(O)CNCC2CCN(S(=O)(=O)c3ccc(-c4noc(CCC(=O)O)n4)cc3)CC2)ccc1O (stereo in doubt) [Example 105, 3-(3-{4-[(4-{[((2S)-2-Hydroxy-2-{4-hydroxy-3-[(methylsulfonyl)amino]-phenyl}ethyl)amino]methyl}-1-piperidinyl)sulfonyl]phenyl}-1,2,4-oxadiazol-5-yl)propanoic Acid] |
| 31 | 1.2 | CS(=O)(=O)Nc1cc([C@@H](O)CNCC2CCN(c3ccc(C(=O)NC(Cc4ccccc4)C(=O)O)cc3)CC2)ccc1O (stereo in doubt) [Example 109, (2S)-2-{[4-(4-{[((2R)-2-Hydroxy-2-{4-hydroxy-3-[(methylsulfonyl)amino]phenyl}-ethyl)amino]methyl}piperidin-1-yl)benzoyl]amino}-3-phenylpropanoic Acid] |
| 66 | 1 | CS(=O)(=O)Nc1cc([C@@H](O)CNCC2CCN(c3ccc(C(=O)N4CCCC4C(=O)O)cc3)CC2)ccc1O (stereo in doubt) [Example 115, (2S)-1-[4-(4-{[((2R)-2-Hydroxy-2-{4-hydroxy-3-[(methylsulfonyl)amino]phenyl}-ethyl)amino]methyl}piperidin-1-yl)benzoyl]pyrrolidine-2-carboxylic Acid] |
| 210 | 0.84 | O=c1[nH]c2ccc(OCC(O)CNCC3CCN(S(=O)(=O)c4cccc(Br)c4)CC3)cc2[nH]1 (stereo in doubt) [Example 178] |
| 30 | 0.81 | COc1ccc(S(=O)(=O)N2CCC(CNC[C@H](O)COc3cccc4[nH]c(=O)[nH]c34)CC2)cc1 [Example 39, 4-((2S)-2-Hydroxy-3-{[1-(4-methoxy-benzenesulfonyl)-piperidin-4-ylmethyl]-amino}-propoxy)-1,3-dihydro-benzoimidazol-2-one] |
| 490 | 0.23 | COc1ccc(S(=O)(=O)N2CCC(CNC[C@H](O)COc3cccc4[nH]c(C)cc34)CC2)cc1 [Example 40, 4-((2S)-2-Hydroxy-3-{[1-(4-methoxy-benzenesulfonyl)-piperidin-4-ylmethyl]-amino}-propoxy)-2-methyl-1H-indole] |
| 95 | 0.65 | COc1ccc(S(=O)(=O)N2CCC(CNC[C@H](O)COc3cccc4c3CC(=O)N4)CC2)cc1 [Example 41, 4-((2S)-3-{[1-(4-Methoxy-benzenesulfonyl)-piperidin-4-ylmethyl]-amino}-2-hydroxy-propoxy)-1,3-dihydro-indol-2-one] |
| 150 | 0.69 | COc1ccc(S(=O)(=O)N2CCC(CNC[C@H](O)COc3cccc4[nH]c(=O)[nH]c34)CC2)cc1OC [Example 42, 4-((2S)-2-Hydroxy-3-{[1-(3,4-dimethoxy-benzenesulfonyl)-piperidin-4-ylmethyl]-amino}-propoxy)-1,3-dihydro-benzoimidazol-2-one] |
| 880 | 0.68 | COc1ccc(S(=O)(=O)N2CCC(CNC[C@H](O)COc3ccc(O)cc3)CC2)cc1OC [Example 43, 4-((2S)-2-Hydroxy-3-{[1-(3,4-dimethoxy-benzenesulfonyl)-piperidin-4-ylmethyl]-amino}-propoxy)-phenol] |
| 421 | 0.46 | COc1ccc(S(=O)(=O)N2CCC(CNC[C@H](O)COc3cccc4c3CC(=O)N4)CC2)cc1OC [Example 44, 4-((2S)-3-{[1-(3,4-Dimethoxy-benzenesulfonyl)-piperidin-4-ylmethyl]-amino}-2-hydroxy-propoxy)-1,3-dihydro-indol-2-one] |
| 610 | 1 | O=[N+]([O-])c1ccc(S(=O)(=O)N2CCC(CNC[C@H](O)COc3ccc(O)cc3)CC2)cc1 [Example 45, 4-((2S)-2-Hydroxy-3-{[1-(4-nitro-benzenesulfonyl)-piperidin-4-ylmethyl]-amino}-propoxy)-phenol] |
| 222 | 0.81 | O=C1Cc2c(cccc2OC[C@@H](O)CNCC2CCN(S(=O)(=O)c3ccc(OC(F)(F)F)cc3)CC2)N1 [Example 46, 4-((2S)-2-Hydroxy-3-{[1-(4-trifluoromethoxy-benzenesulfonyl)-piperidin-4-ylmethyl]-amino}-propoxy)-1,3-dihydro-indol-2-one] |
| 250 | 0.7 | O=S(=O)(c1ccc(OC(F)(F)F)cc1)N1CCC(CNC[C@H](O)COc2ccc(O)cc2)CC1 [Example 47, 4-((2S)-2-Hydroxy-3-{[1-(4-trifluoromethoxy-benzenesulfonyl)-piperidin-4-ylmethyl]-amino}-propoxy)-phenol] |
| 2360 | 0.4 | Cn1cnc(S(=O)(=O)N2CCC(CNC[C@H](O)COc3ccc(O)cc3)CC2)c1 [Example 49, 4-((2S)-2-Hydroxy-3-{[1-(1-methyl-1H-imidazole-4-sulfonyl)-piperidin-4-ylmethyl]-amino}-propoxy)-phenol] |
